# ChEMBL document CHEMBL1201862, “PubChem BioAssay data set” (2004)
#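 Dose response: 5 concentrations. Exposure: 48 h. Format: 96-well plates. Endpoint: linear interpolation; highest concentration if not reached. At the GI50, growth is halved.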 Activity calls are given as the source filed them. No stated cut-off is given here; in the data, active = GI50 up to about 1.1 µM and inactive = higher.
# Legend:
# Test in all cases: NCI tumour cell line growth inhibition, 48 h
# MDA-MB-435 = test system: MDA-MB-435
# SF-295 = test system: SF-295
# CAKI-1 = test system: CAKI-1
# RXF 393 = test system: RXF 393
# SNB-19 = test system: SNB-19
# HCC 2998 = test system: HCC 2998
# DU-145 = test system: DU-145
# U-251 = test system: U-251
# OVCAR-8 = test system: OVCAR-8
# K562 = test system: K562
# NCI-H522 = test system: NCI-H522
# TK-10 = test system: TK-10
# NCI-H460 = test system: NCI-H460
# A498 = test system: A498
# MCF7 = test system: MCF7
# HL-60 = test system: HL-60
# ACHN = test system: ACHN
# EKVX = test system: EKVX
# IGROV-1 = test system: IGROV-1
# MOLT-4 = test system: MOLT-4
# NCI-H23 = test system: NCI-H23
# LOX IMVI = test system: LOX IMVI
# OVCAR-3 = test system: OVCAR-3
# SR = test system: SR
# HCT-116 = test system: HCT-116
# SN12C = test system: SN12C
# MDA-MB-231 = test system: MDA-MB-231
# BT-549 = test system: BT-549
# OVCAR-5 = test system: OVCAR-5
# SK-MEL-2 = test system: SK-MEL-2
# OVCAR-4 = test system: OVCAR-4
# UACC-62 = test system: UACC-62
# HOP-62 = test system: HOP-62
# PC-3 = test system: PC-3
# HT-29 = test system: HT-29
# SNB-75 = test system: SNB-75
# KM12 = test system: KM12
# COLO 205 = test system: COLO 205
# Malme-3M = test system: Malme-3M
# NCI-H226 = test system: NCI-H226
# UACC-257 = test system: UACC-257
# MDA-N = test system: MDA-N
# UO-31 = test system: UO-31
# SF-268 = test system: SF-268
# 786-0 = test system: 786-0
# SW-620 = test system: SW-620
# Hs-578T = test system: Hs-578T
# SK-MEL-28 = test system: SK-MEL-28
# SK-MEL-5 = test system: SK-MEL-5
# NCI/ADR-RES = test system: NCI/ADR-RES
# HCT-15 = test system: HCT-15
# RPMI-8226 = test system: RPMI-8226
# A549 = test system: A549
# CCRF-CEM = test system: CCRF-CEM
# M14 = test system: M14
# SF-539 = test system: SF-539
# SK-OV-3 = test system: SK-OV-3
smiles,measurement,setting,value
COc1ccc(Nc2nc3cc(C(F)(F)F)ccc3nc2C(=O)O)cc1,GI50,MDA-MB-435,22.5 µM (inactive)
same,GI50,SF-295,13 µM (inactive)
same,GI50,CAKI-1,33.2 µM (inactive)
same,GI50,RXF 393,11.9 µM (inactive)
same,GI50,SNB-19,16 µM (inactive)
same,GI50,HCC 2998,14.1 µM (inactive)
same,GI50,DU-145,20.4 µM (inactive)
same,GI50,U-251,13 µM (inactive)
same,GI50,OVCAR-8,19.3 µM (inactive)
same,GI50,K562,15.2 µM (inactive)
same,GI50,NCI-H522,12.4 µM (inactive)
same,GI50,TK-10,34.4 µM (inactive)
same,GI50,NCI-H460,23.9 µM (inactive)
same,GI50,A498,15.1 µM (inactive)
same,GI50,MCF7,20.9 µM (inactive)
same,GI50,HL-60,19.9 µM (inactive)
same,GI50,ACHN,28.3 µM (inactive)
same,GI50,EKVX,22.9 µM (inactive)
same,GI50,IGROV-1,24 µM (inactive)
same,GI50,MOLT-4,7.87 µM (inactive)
same,GI50,NCI-H23,14.4 µM (inactive)
same,GI50,LOX IMVI,16.1 µM (inactive)
same,GI50,OVCAR-3,12.6 µM (inactive)
same,GI50,SR,11.1 µM (inactive)
same,GI50,HCT-116,15.5 µM (inactive)
same,GI50,SN12C,27 µM (inactive)
same,GI50,MDA-MB-231,31.6 µM (inactive)
same,GI50,BT-549,14.4 µM (inactive)
same,GI50,OVCAR-5,24.2 µM (inactive)
same,GI50,SK-MEL-2,14.5 µM (inactive)
same,GI50,OVCAR-4,27.3 µM (inactive)
same,GI50,UACC-62,13.6 µM (inactive)
same,GI50,HOP-62,14.9 µM (inactive)
same,GI50,PC-3,20.4 µM (inactive)
same,GI50,HT-29,30.3 µM (inactive)
same,GI50,SNB-75,17.6 µM (inactive)
same,GI50,KM12,24 µM (inactive)
same,GI50,COLO 205,21.3 µM (inactive)
same,GI50,Malme-3M,18.2 µM (inactive)
same,GI50,NCI-H226,15.6 µM (inactive)
same,GI50,UACC-257,19.1 µM (inactive)
same,GI50,MDA-N,31 µM (inactive)
same,GI50,UO-31,13.6 µM (inactive)
same,GI50,SF-268,17.6 µM (inactive)
same,GI50,786-0,17.5 µM (inactive)
same,GI50,SW-620,21.6 µM (inactive)
same,GI50,Hs-578T,21.1 µM (inactive)
same,GI50,SK-MEL-28,31.7 µM (inactive)
same,GI50,SK-MEL-5,16.7 µM (inactive)
same,GI50,NCI/ADR-RES,23.1 µM (inactive)
same,GI50,HCT-15,16.6 µM
Cc1ccc(S(=O)(=O)Oc2nc3ccccc3nc2OS(=O)(=O)c2ccc(C)cc2)cc1,GI50,MDA-MB-435,> 100 µM (inactive)
same,GI50,SF-295,> 100 µM (inactive)
same,GI50,CAKI-1,8.39 µM (inactive)
same,GI50,RXF 393,> 100 µM (inactive)
same,GI50,RPMI-8226,40.9 µM (inactive)
same,GI50,SNB-19,> 100 µM (inactive)
same,GI50,HCC 2998,> 100 µM (inactive)
same,GI50,DU-145,> 100 µM (inactive)
same,GI50,U-251,> 100 µM (inactive)
same,GI50,OVCAR-8,> 100 µM (inactive)
same,GI50,K562,32.4 µM (inactive)
same,GI50,NCI-H522,16.9 µM (inactive)
same,GI50,TK-10,> 100 µM (inactive)
same,GI50,NCI-H460,> 100 µM (inactive)
same,GI50,A498,> 100 µM (inactive)
same,GI50,MCF7,> 100 µM (inactive)
same,GI50,HL-60,32.3 µM (inactive)
same,GI50,ACHN,> 100 µM (inactive)
same,GI50,EKVX,> 100 µM (inactive)
same,GI50,IGROV-1,> 100 µM (inactive)
same,GI50,MOLT-4,71.3 µM (inactive)
same,GI50,NCI-H23,> 100 µM (inactive)
same,GI50,LOX IMVI,> 100 µM (inactive)
same,GI50,OVCAR-3,> 100 µM (inactive)
same,GI50,SR,54.7 µM (inactive)
same,GI50,HCT-116,> 100 µM (inactive)
same,GI50,SN12C,> 100 µM (inactive)
same,GI50,MDA-MB-231,> 100 µM (inactive)
same,GI50,BT-549,> 100 µM (inactive)
same,GI50,OVCAR-5,> 100 µM (inactive)
same,GI50,SK-MEL-2,> 100 µM (inactive)
same,GI50,A549,> 100 µM (inactive)
same,GI50,UACC-62,> 100 µM (inactive)
same,GI50,PC-3,> 100 µM (inactive)
same,GI50,HT-29,> 100 µM (inactive)
same,GI50,CCRF-CEM,31.6 µM (inactive)
same,GI50,SNB-75,> 100 µM (inactive)
same,GI50,KM12,> 100 µM (inactive)
same,GI50,COLO 205,> 100 µM (inactive)
same,GI50,Malme-3M,17 µM (inactive)
same,GI50,NCI-H226,> 100 µM (inactive)
same,GI50,M14,33.7 µM (inactive)
same,GI50,UACC-257,> 100 µM (inactive)
same,GI50,MDA-N,> 100 µM (inactive)
same,GI50,SF-539,> 100 µM (inactive)
same,GI50,UO-31,> 100 µM (inactive)
same,GI50,SF-268,> 100 µM (inactive)
same,GI50,786-0,> 100 µM (inactive)
same,GI50,SW-620,25.9 µM (inactive)
same,GI50,Hs-578T,> 100 µM (inactive)
same,GI50,SK-MEL-28,28 µM (inactive)
same,GI50,SK-MEL-5,28.5 µM (inactive)
same,GI50,NCI/ADR-RES,> 100 µM (inactive)
same,GI50,SK-OV-3,> 100 µM (inactive)
same,GI50,HCT-15,> 100 µM
C/C(=N\Nc1nc2ccccc2o1)c1cc(C)ncn1,GI50,MDA-MB-435,0.319 µM (active)
same,GI50,SF-295,0.0745 µM (active)
same,GI50,CAKI-1,0.0129 µM (active)
same,GI50,RXF 393,1.34 µM (inactive)
same,GI50,RPMI-8226,0.0306 µM (active)
same,GI50,SNB-19,0.405 µM (active)
same,GI50,HCC 2998,11 µM (inactive)
same,GI50,DU-145,0.171 µM (active)
same,GI50,U-251,0.128 µM (active)
same,GI50,OVCAR-8,0.0173 µM (active)
same,GI50,K562,0.0356 µM (active)
same,GI50,NCI-H522,< 0.01 µM (active)
same,GI50,NCI-H460,0.0455 µM (active)
same,GI50,A498,> 100 µM (inactive)
same,GI50,MCF7,0.0212 µM (active)
same,GI50,HL-60,< 0.01 µM (active)
same,GI50,ACHN,< 0.0189 µM (active)
same,GI50,EKVX,< 0.0153 µM (active)
same,GI50,IGROV-1,0.0275 µM (active)
same,GI50,MOLT-4,< 0.01 µM (active)
same,GI50,NCI-H23,0.102 µM (active)
same,GI50,OVCAR-3,< 0.0223 µM (active)
same,GI50,SR,0.124 µM (active)
same,GI50,HCT-116,< 0.0191 µM (active)
same,GI50,SN12C,< 0.0205 µM (active)
same,GI50,MDA-MB-231,< 0.0203 µM (active)
same,GI50,BT-549,0.305 µM (active)
same,GI50,OVCAR-5,0.618 µM (active)
same,GI50,SK-MEL-2,1.38 µM (inactive)
same,GI50,OVCAR-4,0.136 µM (active)
same,GI50,A549,0.0957 µM (active)
same,GI50,UACC-62,0.0867 µM (active)
same,GI50,HOP-62,0.11 µM (active)
same,GI50,PC-3,0.0383 µM (active)
same,GI50,HT-29,< 0.01 µM (active)
same,GI50,CCRF-CEM,< 0.01 µM (active)
same,GI50,SNB-75,0.151 µM (active)
same,GI50,KM12,0.0851 µM (active)
same,GI50,COLO 205,< 0.01 µM (active)
same,GI50,Malme-3M,0.0327 µM (active)
same,GI50,NCI-H226,< 0.0142 µM (active)
same,GI50,M14,< 0.0206 µM (active)
same,GI50,UACC-257,< 0.0211 µM (active)
same,GI50,MDA-N,2.42 µM (inactive)
same,GI50,SF-539,0.107 µM (active)
same,GI50,UO-31,0.019 µM (active)
same,GI50,SF-268,0.031 µM (active)
same,GI50,786-0,< 0.0275 µM (active)
same,GI50,SW-620,< 0.0201 µM (active)
same,GI50,Hs-578T,0.231 µM (active)
same,GI50,SK-MEL-28,4 µM (inactive)
same,GI50,SK-MEL-5,0.0381 µM (active)
same,GI50,NCI/ADR-RES,0.0242 µM (active)
same,GI50,SK-OV-3,0.0675 µM (active)
same,GI50,HCT-15,0.043 µM
